Test results taken from patent US10227331B2 (priority 2015, dated 2019).
Read-outs that look alike come from different tables or passages of the source.

How the values were obtained:
IMP-1 = IMP-1 (Serratia marcescens, UniProt P52699); experiment: biochemical; assay type: biochemical; conditions: CCF2-FA substrate, 2 hours at 25° C; read-out: IMP-1 IC50
Summary of the method: (§1)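 Fluorescence assay of metallo-β-lactamase activity using CCF2-FA, a cephalosporin-linked 7-hydroxycoumarin–fluorescein substrate. Inhibitor, enzyme and substrate were incubated together for 2 hours at 25° C. IC50 came from a 4-parameter fit of inhibition versus inhibitor concentration.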

NDM-1 = NDM-1 (Klebsiella pneumoniae, UniProt C7C422); experiment: biochemical; assay type: biochemical
Summary of the method: as §1

[1] = test system: P. aeruginosa expressing IMP-1, efflux+ (MB9798); assay type: cell-based, Pseudomonas aeruginosa; conditions: for P. aeruginosa expressing IMP-1, efflux+ (MB9798) MITC95: imipenem at 2 μg/mL, in the presence of a class A, C, D serine β-lactamase inhibitor closely related to relebactam; for Efflux ratio: ratio MITC95 PA_9798/MITC95 PA_9799
Excerpt: (§2) The strain background is Pseudomonas aeruginosa PAO1.

[2] = test system: Klebsiella pneumoniae expressing VIM-1 (IHMA599644); assay type: cell-based; conditions: VIM-1 (IHMA599644), with imipenem 1 μg/ml, 95% inhibition of bacterial growth
Summary of the method: (§3)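 Clinical strains grown overnight on blood agar, then diluted 1:100 in 1.1× CAMHB and exposed to test compound with imipenem at 1 μg/ml. Incubation was 22–24 h at 35° C; growth was read by absorbance to find the compound concentration restoring imipenem susceptibility.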

[3] = test system: Serratia marcescens expressing IMP-1 (CL5741); assay type: cell-based; conditions: IMP-1 (CL5741), with imipenem 1 μg/ml, 95% inhibition of bacterial growth
Summary of the method: as §3

[4] = test system: Escherichia coli expressing NDM-1 (CLB30005, CLB30016); assay type: cell-based; conditions: NDM-1 (CLB30016), with imipenem 1 μg/ml, 95% inhibition of bacterial growth
Summary of the method: as §3

[5] = test system: P. aeruginosa expressing IMP-1, efflux− (MB9799); experiment: Efflux: concentration of MBL inhibitor which restores susceptibility to imipenem; assay type: cell-based, Pseudomonas aeruginosa; conditions: imipenem at 2 μg/mL, in the presence of a class A, C, D serine β-lactamase inhibitor closely related to relebactam
Excerpt: as §2

VIM-1 = VIM-1 (Pseudomonas aeruginosa (strain ATCC 15692 / DSM 22644 / CIP 104116 / JCM 14847 / LMG 12228 / 1C / PRS 101 / PAO1), UniProt A0A0F7KYQ8); experiment: biochemical; conditions: CCF2-FA substrate, 2 hours at 25° C
Summary of the method: as §1

[6] = CCF2-FA substrate, 2 hours at 25° C, read-out: NDM-1 IC50

Chain of NDM-1 (C7C422 whole entry, looked up, species assumed): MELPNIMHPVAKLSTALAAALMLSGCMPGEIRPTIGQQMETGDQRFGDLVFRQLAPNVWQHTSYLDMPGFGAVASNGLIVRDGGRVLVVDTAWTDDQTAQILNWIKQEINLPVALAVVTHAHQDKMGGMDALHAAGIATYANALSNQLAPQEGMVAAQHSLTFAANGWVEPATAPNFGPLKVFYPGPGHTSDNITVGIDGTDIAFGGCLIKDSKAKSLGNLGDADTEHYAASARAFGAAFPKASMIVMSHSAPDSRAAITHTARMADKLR
Chain of IMP-1 (P52699 whole entry, looked up, species assumed): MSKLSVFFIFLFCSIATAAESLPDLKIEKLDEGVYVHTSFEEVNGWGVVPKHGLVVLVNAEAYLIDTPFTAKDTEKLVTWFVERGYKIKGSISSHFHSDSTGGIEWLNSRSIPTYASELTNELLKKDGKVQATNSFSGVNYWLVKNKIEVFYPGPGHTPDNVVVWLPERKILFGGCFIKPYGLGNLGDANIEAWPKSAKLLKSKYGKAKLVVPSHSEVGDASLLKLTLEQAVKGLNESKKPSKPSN

| SMILES | IC50 (IMP-1) | IC50 (NDM-1; [6]) | P. aeruginosa expressing IMP-1, efflux+ (MB9798) MITC95 [1] | Efflux ratio [1] | Klebsiella pneumoniae MITC95 [2] | Serratia marcescens MITC95 [3] | Escherichia coli MITC95 [4] | P. aeruginosa expressing IMP-1, efflux− (MB9799) MITC95 [5] | IC50 (VIM-1) | IC50 (NDM-1) |
| --- | --- | --- | --- | --- | --- | --- | --- | --- | --- | --- |
| Nc1nc2c(-c3ccc(S(=O)(=O)CCO)c(S(N)(=O)=O)c3-c3nn[nH]n3)cccc2c[n+]1[O-] [Example 319, 2-amino-8-(4-((2-hydroxyethyl)sulfonyl)-3-sulfamoyl-2-(2H-tetrazol-5-yl)phenyl)quinazoline 3-oxide] | 1.92 nM | 0.194 nM | 25 µM | 2.00 | 50 µM | 25 µM | 100 µM | 12.5 µM | 0.407 nM | – |
| NS(=O)(=O)c1c(S(=O)(=O)CCO)ccc(-c2cccc3c2ccc[n+]3[O-])c1-c1nn[nH]n1 [Example 320, 5-(4-((2-hydroxyethyl)sulfonyl)-3-sulfamoyl-2-(2H-tetrazol-5-yl)phenyl)quinoline 1-oxide] | 1.06 nM | 0.939 nM | 25 µM | 4.00 | 12.5 µM | 25 µM | 50 µM | 6.25 µM | 0.208 nM | – |
| NCCS(=O)(=O)c1ccc(-c2ccc(N)nc2)c(-c2nn[nH]n2)c1S(N)(=O)=O [Example 321, 6-((2-aminoethyl)sulfonyl)-3-(6-aminopyridin-3-yl)-2-(2H-tetrazol-5-yl) benzenesulfonamide] | 0.949 nM | 1.36 nM | 1.781 µM | 2.78 | 1.281 µM | 0.4453 µM | 0.125 µM | 0.6406 µM | 1.01 nM | – |
| NCCS(=O)(=O)c1ccc(-c2ccc(C3CCNCC3)cc2)c(-c2nn[nH]n2)c1S(N)(=O)=O [Example 322, 4-((2-aminoethyl)sulfonyl)-4′-(piperidin-4-yl)-2-(2H-tetrazol-5-yl)-[1,1′-biphenyl]-3-sulfonamide] | 0.17 nM | 0.731 nM | 1.563 µM | 2.00 | 3.125 µM | 1.563 µM | 1.563 µM | 0.7813 µM | 0.205 nM | – |
| NCCS(=O)(=O)c1ccc(-c2cccc3cc(C(N)=O)[nH]c23)c(-c2nn[nH]n2)c1S(N)(=O)=O [Example 323, 7-(4-((2-aminoethyl)sulfonyl)-3-sulfamoyl-2-(2H-tetrazol-5-yl)phenyl)-1H-indole-2-carboxamide] | 0.146 nM | 0.0513 nM | 0.7813 µM | 1.00 | 1.563 µM | 1.563 µM | 3.125 µM | 0.7813 µM | 0.214 nM | – |
| NCCS(=O)(=O)c1ccc(-c2cccc3ncccc23)c(-c2nn[nH]n2)c1S(N)(=O)=O [Example 324, 6-((2-aminoethyl)sulfonyl)-3-(quinolin-5-yl)-2-(2H-tetrazol-5-yl) benzenesulfonamide] | 0.55 nM | 0.222 nM | 6.25 µM | 8.00 | 3.125 µM | 1.563 µM | 1.563 µM | 0.7813 µM | 0.139 nM | – |
| CS(=O)(=O)Nc1nc2c(-c3ccc(S(=O)(=O)C4CCNCC4)c(S(N)(=O)=O)c3-c3nn[nH]n3)cccc2s1 [Example 325, 3-(2-(methylsulfonamido)benzo[d]thiazol-4-yl)-6-(piperidin-4-ylsulfonyl)-2-(2H-tetrazol-5-yl)benzenesulfonamide] | 0.239 nM | 0.0723 nM | 6.25 µM | 1.00 | 25 µM | 12.5 µM | 12.5 µM | 6.25 µM | 0.346 nM | – |
| CN(C)CCS(=O)(=O)c1ccc(-c2cccc3sc(N)nc23)c(-c2nn[nH]n2)c1S(N)(=O)=O [Example 326, 3-(2-aminobenzo[d]thiazol-4-yl)-6-((2-(dimethylamino)ethyl)sulfonyl)-2-(2H-tetrazol-5-yl)benzenesulfonamide] | 0.248 nM | 0.0761 nM | 1.563 µM | 1.00 | 6.25 µM | 3.125 µM | 3.125 µM | 1.563 µM | 0.167 nM | – |
| NCCS(=O)(=O)c1ccc(-c2cccc3[nH]c([C@H](N)CN)nc23)c(-c2nn[nH]n2)c1S(N)(=O)=O [Example 327, (R)-6-((2-Aminoethyl)sulfonyl)-3-(2-(1,2-diaminoethyl)-1H-benzo[d]imidazol-4-yl)-2-(2H-tetrazol-5-yl)benzenesulfonamide] | 2.23 nM | – | 3.125 µM | 2.00 | 3.125 µM | 3.125 µM | 1.563 µM | 1.563 µM | 0.455 nM | 1.02 nM |
| NCCS(=O)(=O)c1ccc(-c2cccc3[nH]c([C@H](N)CNC(=O)C(F)(F)F)nc23)c(-c2nn[nH]n2)c1S(N)(=O)=O [Example 328, (R)—N-(2-Amino-2-(4-(4-((2-aminoethyl)sulfonyl)-3-sulfamoyl-2-(2H-tetrazol-5-yl)phenyl)-1H-benzo[d]imidazol-2-yl)ethyl)-2,2,2-trifluoroacetamide] | 3.42 nM | 1.3 nM | 3.125 µM | 2.00 | 3.125 µM | 3.125 µM | 1.563 µM | 1.563 µM | 0.474 nM | – |
| NCCS(=O)(=O)c1ccc(-c2cccc3[nH]c([C@H](N)CO)nc23)c(-c2nn[nH]n2)c1S(N)(=O)=O [Example 329, (S)-3-(2-(1-amino-2-hydroxyethyl)-1H-benzo[d]imidazol-4-yl)-6-((2-aminoethyl)sulfonyl)-2-(2H-tetrazol-5-yl) benzenesulfonamide] | 1.93 nM | 0.404 nM | 3.125 µM | 2.00 | 6.25 µM | 3.125 µM | 1.563 µM | 1.563 µM | 0.282 nM | – |
| NCCS(=O)(=O)c1ccc(-c2cccc3[nH]c(CC(N)C(=O)O)nc23)c(-c2nn[nH]n2)c1S(N)(=O)=O (stereo not drawn) [Example 330, 2-amino-3-(4-(4-((2-aminoethyl)sulfonyl)-3-sulfamoyl-2-(2H-tetrazol-5-yl)phenyl)-1H-benzo[d]imidazol-2-yl)propanoic acid] | 3.61 nM | 0.675 nM | 6.25 µM | 2.00 | 6.25 µM | 1.563 µM | 3.125 µM | 3.125 µM | 0.639 nM | – |
| Cc1nc2c(-c3ccc(S(=O)(=O)CCN)c(S(N)(=O)=O)c3-c3nn[nH]n3)cccc2[nH]1 [Example 331, 6-((2-aminoethyl)sulfonyl)-3-(2-methyl-1H-benzo[d]imidazol-4-yl)-2-(2H-tetrazol-5-yl) benzenesulfonamide] | 0.302 nM | 0.165 nM | 1.563 µM | 1.00 | 6.25 µM | 1.563 µM | 3.125 µM | 1.563 µM | 0.183 nM | – |
| NS(=O)(=O)c1c(S(=O)(=O)C2CNC2)ccc(-c2cccc3[nH]cnc23)c1-c1nn[nH]n1 [Example 332, 6-(Azetidin-3-ylsulfonyl)-3-(1H-benzo[d]imidazol-4-yl)-2-(2H-tetrazol-5-yl)benzenesulfonamide] | 0.557 nM | 0.124 nM | 6.25 µM | 4.00 | 3.125 µM | 1.563 µM | 0.7813 µM | 1.563 µM | 0.275 nM | – |
